Laboratory results published in ChEMBL document CHEMBL1141468, “Photoactivated enediynes as targeted antitumoral agents: efficient routes to antibody and gold nanoparticle conjugates” (Bioorg Med Chem Lett, 2008).

Assay: Radiation-induced photodegradation in […] X174 Rf1 DNA assessed as conversion of type 2 DNA at 1 uM after 3 hrs

- Activity: 24%
SMILES: O=C(O)CCOCCOCCOCCOCCOCCOCCOCCOCCOCCOCCOCCOCCOCCC(=O)OCc1ccc(C#Cc2ccccc2C#Cc2ccccc2)cc1
